Data as given in paper PMC7909954 (eLife, 2021).
“And” between values parts separate entries of the source, which are not always exact repeats. Identical values can stand only once. Like-named read-outs stand apart in the source and are kept apart here.

How the values were obtained:
[1] = biological target: T1, mDOR (Mus musculus, UniProt P32300); assay: biochemical; details: read-out: Emax mDOR [35S]GTPγS
[2] = biological target: T2, MOR (Homo sapiens, UniProt P35372)
[3] = biological target: T3, rKOR (Rattus norvegicus, UniProt P34975); assay: cell-based; details: for Emax: HEK-293T, read-out: Emax% G protein activation (BRET) rKOR
[4] = biological target: T4, mKOR (Mus musculus, UniProt P33534); assay: biochemical; details: for EC50: EC50 mKOR [35S]GTPγS, ± SEM; for Emax: read-out: Emax mKOR [35S]GTPγS
[5] = biological target: T5, mMOR (Mus musculus, UniProt P42866); assay: cell-based; design: expressed in transfected cells; host or cells: HEK-293T
[6] = biological target: T6, KOR (Homo sapiens, UniProt P41145); assay: cell-based; details: for Emax: HTLA, read-out: Emax% arrestin recruitment (Tango) hKOR
[7] = biological target: T1, mDOR; assay: cell-based; details: for EC50: EC50 G protein activation (BRET) mDOR; for Emax: HEK-293T, read-out: Emax% G protein activation (BRET) mDOR
[8] = biological target: T7, DOR (Homo sapiens, UniProt P41143); assay: cell-based; details: for EC50: EC50 cAMP inhibition hDOR; for Emax: HEK-293T, read-out: Emax% cAMP inhibition hDOR
[9] = test system: MOR KO, KOR KO and DOR KO mice; assay: 55°C warm-water tail-withdrawal assay in opioid receptor knock out mice; type: in vivo, mouse
[10] = biological target: T5, mMOR; assay: biochemical; details: for EC50: EC50 mMOR [35S]GTPγS, ± SEM; for Emax: read-out: Emax mMOR [35S]GTPγS
[11] = biological target: T5, mMOR; assay: cell-based; details: for EC50: EC50 G protein activation (BRET) mMOR; for Emax: HEK-293T, read-out: Emax% G protein activation (BRET) mMOR
[12] = biological target: T1, mDOR; details: binding assays
[13] = biological target: Y312W-hKOR (Homo sapiens, UniProt P41145, Y312W); assay: cell-based; details: read-out: Emax% cAMP inhibition Y312W-hKOR
[14] = biological target: T5, mMOR; assay: biochemical
[15] = biological target: T7, DOR; assay: cell-based; details: for EC50: Tango; for Emax: HTLA, read-out: Emax% arrestin recruitment hDOR
[16] = biological target: T2, MOR; assay: cell-based; details: for Emax: HEK-293T, read-out: Emax% cAMP inhibition hMOR
[17] = biological target: T6, KOR; details: for Bias factor (cAMP-Tango) hKOR: >1 G protein bias, <1 arrestin bias; for Bias factor (cAMP-Tango) hKOR / ΔlogRA Tango hKOR / ΔlogRA cAMP hKOR: vs U50,488h; for Log RA cAMP hKOR / LogRA Tango hKOR: transduction coefficient log(T/KA)
[18] = biological target: T4, mKOR; assay: biochemical
[19] = biological target: T6, KOR; assay: cell-based; details: for EC50: EC50 cAMP inhibition hKOR
[20] = biological target: T3, rKOR; details: BRET, rodent receptors
[21] = biological target: T1, mDOR; assay: cell-based
[22] = biological target: T5, mMOR; type: cell-based; design: expressed in transfected cells; host or cells: HEK-293T
[23] = biological target: T2, MOR; remark: listed apart in the source
[24] = biological target: T2, MOR; assay: cell-based
[25] = biological target: T3, rKOR; assay: cell-based; details: HEK-293T, read-out: Emax% arrestin recruitment (BRET) rKOR
[26] = biological target: T3, rKOR
[27] = EC50 arrestin recruitment (Tango) hKOR
[28] = DOR KO mice, 100 nmol i.c.v., 40 min, single mice and mean (n=8)
[29] = DOR KO mice, 100 nmol i.c.v., 110 min, single mice and mean (n=8)
[30] = MOR KO mice, 100 nmol i.c.v., 60 min, single mice and mean (n=8)
[31] = MOR KO mice, 100 nmol i.c.v., 70 min, single mice and mean (n=8)
[32] = MOR KO mice, 100 nmol i.c.v., 80 min, single mice and mean (n=8)
[33] = MP1207 30 nmol icv, MP1208 35 nmol icv

T6 sequence (P41145 whole entry): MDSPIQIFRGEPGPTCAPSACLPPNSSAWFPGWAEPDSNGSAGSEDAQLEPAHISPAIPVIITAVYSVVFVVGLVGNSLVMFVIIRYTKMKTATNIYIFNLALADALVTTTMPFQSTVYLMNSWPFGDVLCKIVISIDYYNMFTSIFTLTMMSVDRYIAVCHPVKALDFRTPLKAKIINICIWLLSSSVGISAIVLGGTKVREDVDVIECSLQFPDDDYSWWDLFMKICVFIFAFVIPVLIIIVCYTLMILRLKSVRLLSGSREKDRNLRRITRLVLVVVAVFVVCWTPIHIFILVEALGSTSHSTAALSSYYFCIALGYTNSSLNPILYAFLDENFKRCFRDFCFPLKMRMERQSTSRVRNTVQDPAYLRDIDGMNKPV
T4 sequence (P33534 whole entry): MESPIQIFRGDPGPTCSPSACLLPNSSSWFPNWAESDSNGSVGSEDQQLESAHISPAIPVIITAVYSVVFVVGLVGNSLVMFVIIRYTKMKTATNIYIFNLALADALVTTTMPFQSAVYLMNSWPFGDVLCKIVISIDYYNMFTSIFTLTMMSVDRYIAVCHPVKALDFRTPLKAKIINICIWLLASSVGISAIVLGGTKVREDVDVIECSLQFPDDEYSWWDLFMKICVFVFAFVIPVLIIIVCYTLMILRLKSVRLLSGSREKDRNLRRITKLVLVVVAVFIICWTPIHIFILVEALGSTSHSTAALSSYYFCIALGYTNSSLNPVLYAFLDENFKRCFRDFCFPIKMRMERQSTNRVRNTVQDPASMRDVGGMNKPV
T7 sequence (P41143 whole entry): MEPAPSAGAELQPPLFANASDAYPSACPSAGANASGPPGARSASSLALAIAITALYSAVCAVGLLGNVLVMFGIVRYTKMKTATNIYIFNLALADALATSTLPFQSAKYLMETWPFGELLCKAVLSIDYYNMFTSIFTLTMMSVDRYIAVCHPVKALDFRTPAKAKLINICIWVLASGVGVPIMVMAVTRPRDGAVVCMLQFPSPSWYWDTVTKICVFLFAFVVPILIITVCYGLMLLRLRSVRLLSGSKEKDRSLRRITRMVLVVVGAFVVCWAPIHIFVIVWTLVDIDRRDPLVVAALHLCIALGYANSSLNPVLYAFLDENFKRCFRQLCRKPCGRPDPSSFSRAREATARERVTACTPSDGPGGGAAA
T3 sequence (P34975 whole entry): as the sequence (P33534 whole entry) above, with D11E, S17A, S51P, A308V counted along it
T1 sequence (P32300 whole entry): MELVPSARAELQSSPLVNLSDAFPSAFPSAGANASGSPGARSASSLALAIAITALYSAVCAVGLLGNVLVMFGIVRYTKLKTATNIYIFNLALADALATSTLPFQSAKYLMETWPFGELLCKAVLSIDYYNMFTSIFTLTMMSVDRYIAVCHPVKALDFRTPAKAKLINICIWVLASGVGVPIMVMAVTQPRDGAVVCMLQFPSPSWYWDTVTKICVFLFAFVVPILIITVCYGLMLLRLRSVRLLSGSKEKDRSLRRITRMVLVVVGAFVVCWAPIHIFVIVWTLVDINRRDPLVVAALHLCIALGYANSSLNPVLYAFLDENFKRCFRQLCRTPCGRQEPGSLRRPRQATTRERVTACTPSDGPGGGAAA
T2 sequence (P35372 whole entry): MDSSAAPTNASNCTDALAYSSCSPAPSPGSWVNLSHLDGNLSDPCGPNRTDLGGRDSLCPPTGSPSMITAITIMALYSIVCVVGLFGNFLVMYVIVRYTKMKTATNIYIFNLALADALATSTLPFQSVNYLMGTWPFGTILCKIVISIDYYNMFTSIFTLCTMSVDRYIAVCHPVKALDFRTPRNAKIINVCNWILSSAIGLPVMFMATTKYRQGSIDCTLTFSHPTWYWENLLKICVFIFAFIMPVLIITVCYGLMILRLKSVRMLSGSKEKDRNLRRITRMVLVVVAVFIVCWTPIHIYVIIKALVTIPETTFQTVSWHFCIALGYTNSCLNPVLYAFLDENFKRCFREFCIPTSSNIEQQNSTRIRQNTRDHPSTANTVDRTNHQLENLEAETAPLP
T5 sequence (P42866 whole entry): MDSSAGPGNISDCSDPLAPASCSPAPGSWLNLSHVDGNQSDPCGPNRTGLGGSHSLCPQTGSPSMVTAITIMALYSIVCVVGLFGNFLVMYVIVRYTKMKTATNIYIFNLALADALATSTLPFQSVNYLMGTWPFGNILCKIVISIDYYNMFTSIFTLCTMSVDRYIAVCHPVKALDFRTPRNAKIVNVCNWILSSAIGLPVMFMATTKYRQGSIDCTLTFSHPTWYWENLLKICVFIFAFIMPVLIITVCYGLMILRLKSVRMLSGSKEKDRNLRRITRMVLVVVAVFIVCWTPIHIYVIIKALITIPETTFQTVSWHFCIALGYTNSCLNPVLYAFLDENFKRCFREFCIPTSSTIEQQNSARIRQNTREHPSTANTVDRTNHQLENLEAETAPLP
Chain of Y312W-hKOR (P41145 whole entry Y312W): as the sequence (P41145 whole entry) above, with Y312W counted along it

For `N=C(N)NCc1cccc(C(=O)N[C@@H]2CCC3C4Cc5ccc(O)c6c5[C@@]3(CCN4CC3CC3)C2O6)c1` (stereo partly drawn) [MP1208, N-((7R,12bS)−3-(Cyclopropylmethyl)−9-hydroxy-2,3,4,4a,5,6,7,7a-octahydro-1H-4,12-methanobenzofuro[3,2-e]isoquinolin-7-yl)−3-(guanidinomethyl)benzamide], the Emax [1] was 10 to 15%, the “arrestin recruitment at hMOR (in words)” value [2] was “completely abolished” and the EC50 [3] was 1.07 nM. The Emax [3] was 40 ± 2.4%, the EC50 [4] was 1.4 nM and 1.36 nM and the Emax [4] was 43 ± 0.8%. The “arrestin recruitment at mMOR (in words)” value [5] was “No recruitment of βarrestin-2”, the EC50 [6, 27] was 16.4 nM and the Emax [6] was 48 ± 2.4%. The EC50 ([6]; pEC50 arrestin recruitment (Tango) hKOR, ± SEM) was 16.2 nM, the EC50 [7] was 26.6 nM and the Emax [7] was 58 ± 3.3%. For the same compound, the EC50 [8] was 2.49 nM, the Emax [8] was 39 ± 1.8% and the “30 min (tail-withdrawal latency)” value ([9]; DOR KO mice, 100 nmol i.c.v., 30 min, single mice and mean (n=8)) was 15 s and 8 s and 14.125 s. For the same compound, the “40 min (tail-withdrawal latency)” value [9, 28] was 15 s and 14.7 s and 12.1 s and 14.6 s, the “%A-40 min (% antinociception)” value [9, 28] was 100% and 97.83% and 77.34% and 96.8962% and the “%A-100 min (% antinociception)” value ([9]; DOR KO mice, 100 nmol i.c.v., 100 min, single mice and mean (n=8)) was 0% and 3.7% and 0.72% and 6.25% and 1.334%. For the same compound, the “110 min (tail-withdrawal latency)” value [9, 29] was 1.4 s and 1.9 s and 1.3 s and 1.6 s and 1.5 s and 2.2 s and 1.5625 s, the “%A-110 min (% antinociception)” value [9, 29] was 0% and 2.96% and 2.9% and 0.7325% and the “60 min (tail-withdrawal latency)” value [9, 30] was 1.3 s and 1.2 s and 1.5 s and 1.7 s and 1.4 s and 1.4375 s. For the same compound, the “%A-60 min (% antinociception)” value [9, 30] was 0% and 2.17% and 3.62% and 2.16% and 1.446%, the “70 min (tail-withdrawal latency)” value [9, 31] was 1.3 s and 1.4 s and 1.8 s and 1.2 s and 1.35 s and the “%A-70 min (% antinociception)” value [9, 31] was 0% and 0.72% and 2.94% and 0.7275%. The “80 min (tail-withdrawal latency)” value [9, 32] was 1.3 s and 1.1 s and 1.9 s and 1.2 s and 1.2875 s, the “%A-80 min (% antinociception)” value [9, 32] was 0% and 5.07% and 0.72% and 0.7238% and the “antinociception in DOR KO mice vs WT” value [9, 33] was “remained intact”. The “antinociception in KOR KO mice vs WT” value [9, 33] was “attenuated”, the “antinociception in MOR KO mice vs WT” value [9, 33] was “attenuated” and the EC50 [10] was 1.1 nM and 1.13 nM. For the same compound, the Emax [10] was 54 ± 0.7%, the EC50 [11] was 2.27 nM and the Emax [11] was 41 ± 3%. The “selectivity for MOR and KOR over DOR” value [12] was “more than 40 fold”, the Emax [13] was 97 ± 1% and the Ki [14] was 0.34 ± 0.01 nM. It also gave an EC50 ([15]; EC50 arrestin recruitment hDOR) of 3620 nM, an Emax [15] of 62 ± 16.7% and an EC50 ([15]; pEC50 arrestin recruitment hDOR, ± SEM) of 3160 nM. The Emax [16] was 42 ± 1.3%, the “ΔΔlog RA (cAMP-Tango) hKOR” value [17] was 1.35±0.022 and the “Bias factor (cAMP-Tango) hKOR” value [17] was 22. The “Log RA cAMP hKOR” value [17] was 9.83±0.004, the “LogRA Tango hKOR” value [17] was 7.447±0.020 and the “ΔlogRA Tango hKOR” value [17] was -0.697±0.022. For the same compound, the “ΔlogRA cAMP hKOR” value [17] was 0.65±0.005, the Ki [18] was 0.28 ± 0.02 nM and the EC50 [19] was 0.14 nM. For the same compound, the Emax ([19]; HEK-293T, read-out: Emax% cAMP inhibition hKOR) was 96 ± 1.9% and the “arrestin recruitment at rKOR (in words)” value [20] was “No recruitment of βarrestin-2”.

`O=C(NC1C=CC2C3Cc4ccc(O)c5c4C2(CCN3CC2CC2)C1O5)c1cccc(I)c1` (stereo not drawn) [MP1104] gave an Emax [1] of 88%, an EC50 ([21]; EC50 arrestin recruitment (BRET) mDOR) of 26 nM and an Emax ([21]; HEK-293T, read-out: Emax% arrestin recruitment (BRET) mDOR) of 40 ± 1.7%. The Emax [3] was 93 ± 1%, the “Bias factor (BRETG-BRETArr) mMOR” value [22] was 0.11 and the “Log RA BRET-G mMOR” value [22] was 8.917±0.12. For the same compound, the “LogRA BRET-Arr mMOR” value [22] was 9.196±0.06, the “ΔlogRA BRET-G mMOR” value [22] was 0.357±0.173 and the “ΔlogRA BRET-arr mMOR” value [22] was 1.323±0.09. The “ΔΔlog RA (BRETG-BRETArr) mMOR” value [22] was -0.966±0.195, the EC50 [4] was 0.027 ± 0.002 nM and the Emax [4] was 104 ± 2%. The EC50 [5] was 0.285 nM, the Emax ([5]; HEK-293T, read-out: Emax% arrestin recruitment (BRET) mMOR) was 53 ± 1.6% and the EC50 [6, 27] was 0.0394 nM. The Emax [6] was 117 ± 2%, the “Bias factor (cAMP-Tango) hMOR” value [23] was 0.58 and the “Log RA cAMP hMOR” value [23] was 10.12±0.009. For the same compound, the “LogRA Tango hMOR” value [23] was 9.18±0.013, the “ΔlogRA Tango hMOR” value [23] was 1.26±0.019 and the “ΔlogRA cAMP hMOR” value [23] was 1.018±0.012. For the same compound, the “ΔΔlog RA (cAMP-Tango) hMOR” value [23] was -0.24±0.022, the EC50 [7] was 1.4 nM and the Emax [7] was 91 ± 1.7%. For the same compound, the EC50 [24] was 0.573 nM, the Emax ([24]; HTLA, read-out: Emax% arrestin recruitment (Tango) hMOR) was 90 ± 2.28% and the EC50 [8] was 0.4 nM. The Emax [8] was 99 ± 1.1%, the EC50 [10] was 0.21 ± 0.03 nM and the Emax [10] was 103 ± 2%. It also gave an EC50 [11] of 0.66 nM, an Emax [11] of 62 ± 2% and an Emax [25] of 89 ± 2.6%. The “Log RA BRET-G rKOR” value [26] was 10.07±0.047, the “LogRA BRET-Arr rKOR” value [26] was 8.84±0.033 and the “ΔΔlog RA (BRETG-BRETArr) rKOR” value [26] was -0.64±0.079. The “Bias factor (BRETG-BRETArr) rKOR” value ([26]; vs U50,488h) was 0.23, the “ΔlogRA BRET-G rKOR” value ([26]; vs U50,488h) was 1.067±0.064 and the “ΔlogRA BRET-arr rKOR” value ([26]; vs U50,488h) was 1.702±0.047. It also gave a Ki [14] of 0.021 nM, an EC50 ([15]; EC50 arrestin recruitment hDOR) of 3.73 nM and an Emax [15] of 189 ± 5.5%. For the same compound, the EC50 ([16]; EC50 cAMP inhibition hMOR) was 0.074 nM, the Emax [16] was 94 ± 1% and the “ΔΔlog RA (cAMP-Tango) hKOR” value [17] was -0.81±0.055. The “Bias factor (cAMP-Tango) hKOR” value [17] was 0.15, the “Log RA cAMP hKOR” value [17] was 11.44±0.034 and the “LogRA Tango hKOR” value [17] was 10.45±0.019. The “ΔlogRA Tango hKOR” value [17] was 2.16±0.027, the “ΔlogRA cAMP hKOR” value [17] was 1.35±0.048 and the Ki [18] was 0.0064 nM. It also gave an EC50 [19] of 0.00327 nM.
